Experimental data: patent US9271971B2, “Pyrido[3,4-B]indoles and methods of use” (Medivation Technologies, Inc., priority 2009, dated 2016)

These compounds were tested against T1, rat adrenergic α1A receptor (Rattus norvegicus, UniProt P43140) (assay: Adrenergic α1A radioligand binding assay). Settings: [3H]Prozosin specific binding, read-out: Percent Inhibition of ligand binding, Adrenergic (0.1 μM ligand conc.) α1A.
T1 construct: rat adrenergic α1A receptor obtained from Wistar Rat submaxillary glands; from tissue; host or cells: Wistar Rat submaxillary glands
T1 sequence (P43140 1-466): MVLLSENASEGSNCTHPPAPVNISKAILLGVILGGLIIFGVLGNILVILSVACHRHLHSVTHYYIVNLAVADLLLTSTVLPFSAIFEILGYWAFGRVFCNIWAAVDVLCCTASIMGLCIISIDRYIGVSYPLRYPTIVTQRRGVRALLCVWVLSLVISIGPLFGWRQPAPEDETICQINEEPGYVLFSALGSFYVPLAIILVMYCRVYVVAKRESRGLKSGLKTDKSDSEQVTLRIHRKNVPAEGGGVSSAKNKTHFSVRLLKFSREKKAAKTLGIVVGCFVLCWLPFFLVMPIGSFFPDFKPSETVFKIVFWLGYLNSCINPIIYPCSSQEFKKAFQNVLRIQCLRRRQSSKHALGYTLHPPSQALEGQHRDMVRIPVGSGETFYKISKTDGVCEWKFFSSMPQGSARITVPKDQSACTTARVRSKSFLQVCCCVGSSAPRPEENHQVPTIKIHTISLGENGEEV
Description: To evaluate in radioligand binding assays the activity of compounds of the invention, rat adrenergic α1A receptor obtained from Wistar Rat submaxillary glands (Michel, A. D. et al., Br. J. Pharmacol. (1989), 98:883] in a modified Tris-HCl buffer (50 mM Tris-HCl buffer, pH 7.4, 0.5 mM EDTA) was used. Compounds of the invention were incubated with 0.25 nM [^3H]Prozosin for 60 min. at 25° C. Non-specific binding was estimated in the presence of 10 μM phentolamine. Receptor proteins were filtered and washed, the filters were then counted to determine [^3H]Prozosin specifically bound. Compounds of the invention were screened at 1 μM or lower, using 1% DMSO as vehicle. Compounds of the invention were tested in this biochemical assay. Biochemical assay results for representative compounds were presented as the percent inhibition of specific binding in Table 3.

**Q.** C/C(=C\n1c2c(c3cc(C)ccc31)C1CCN(C2)C1)c1ccc(Cl)cc1 (stereo not drawn) [Compound 32] was tested. Which inhibition at 0.1 µM did it give?
**A.** 36%

**Q.** With C/C(=C\n1c2c(c3cc(C)ccc31)C1CCN(C2)C1)c1ccc(Cl)cc1Cl (stereo not drawn) [Compound 33] as the compound, how does the inhibition at 0.1 µM read?
**A.** 3%

**Q.** How did the inhibition at 0.1 µM turn out when Cc1ccc2c(c1)c1c(n2C(=O)Cc2ccc(Cl)cc2)CN2CCC1C2 (stereo not drawn) [Compound 36] was run?
**A.** -18%

**Q.** C/C(=C\n1c2c(c3cc(C)ccc31)C1CCN(C2)C1)c1ccccc1F (stereo not drawn) [Compound 38] was tested. Which inhibition at 0.1 µM did it give?
**A.** 14%

**Q.** With C/C(=C\n1c2c(c3cc(C)ccc31)C1CCN(C2)C1)c1ccncc1 (stereo not drawn) [Compound 44] as the compound, how does the inhibition at 0.1 µM read?
**A.** -7%

**Q.** How did the inhibition at 0.1 µM turn out when COc1ccc(/C(C)=C/n2c3c(c4cc(C)ccc42)C2CCN(C3)C2)cc1 (stereo not drawn) [Compound 45] was run?
**A.** 24%
